This note sets out measurements from ChEMBL document CHEMBL1135774 (J Med Chem, 2002).

SMILES strings stand for the structures.

Data set [1] deals with cGMP-specific 3',5'-cyclic phosphodiesterase (Homo sapiens, UniProt O76074). Kind of data set: Phosphodiesterase 5 activity of human corpus cavernosum.
Data set [2] is described as follows: Oral bioavailability in rat. It counts as ADME, organism-based. The note with it: in vivo.
In data set [3] the test system is Canis familiaris. Kind of data set: In vivo efficacy in dogs. Particulars: Canis lupus familiaris. It counts as functional.
For the next data set, the species on record is Homo sapiens. Kind of data set: Selectivity for human retinal cone PDE-6 and human corpus cavernosum PDE-5.
Data set [4] in a line: pKa of the compound. It counts as physicochemical.
Data set [5] deals with Canis familiaris. Briefly: In vivo efficacy in dogs. Format: functional. The note with it: Canis lupus familiaris.
For data set [6], the system named is Canis familiaris. Kind of data set: In vivo effect on erectile dysfunction in dogs after intravenous dose. Format: functional. The note with it: Canis lupus familiaris.
The nature of data set [7]: pKa value of the compound. Format: physicochemical.

One may read the Ki as a dissociation constant, usually derived from enzyme kinetics or from competition with a known ligand. A high value points to weaker binding. In data set [1], `Oc1ccc(-c2cnc(N3Cc4c(nc5ccccc5c4O)C3c3ccc4c(c3)CCO4)nc2)cc1` (stereo not drawn) displayed a Ki of 1.75 nM.
Usually bioavailability stands for the share of a dose that reaches the circulation, judged against a reference dose that is usually intravenous. A low value points to little systemic uptake. For orientation: ED50 means the dose at which the effect has come halfway, by size or by number of responders. Higher therefore signals a need for a large dose. In data set [2], `CCCc1nn(C)c2c(=O)[nH]c(-c3cc(S(=O)(=O)N4CCN(C)CC4)ccc3OCC)nc12` yielded a bioavailability of 11%. Further, the ED50 in the data set on Canis familiaris [3] was 5.1 µg/kg.
As to `Oc1c2c(nc3ccccc13)C(c1ccc3c(c1)CCO3)N(c1ncccn1)C2` (stereo not drawn), the affinity in data set [1], expressed as Ki, was 1.08 nM. Also, the Ratio in the data set listed under Homo sapiens was 310.
In the case of `Oc1c2c(nc3ccccc13)C(c1ccc3c(c1)CCO3)N(c1ncc(-c3ccc(OCCN4CCOCC4)cc3)cn1)C2` (stereo not drawn), the affinity in data set [1] corresponds to a Ki of 0.29 nM.
A word on the pKa: it is the negative logarithm of the acid dissociation constant. Lower therefore signals a stronger acid or weaker base. As for `COc1ccc(-c2cnc(N3Cc4c(nc5ccccc5c4O)[C@H]3c3ccc4c(c3)OCO4)nc2)cc1OC`, the Ki in data set [1] stood at 0.21 nM. The Ratio in the data set listed under Homo sapiens came to 0.59. Besides, in data set [4], the pKa was determined as 9. Further, the ED50 in the data set with Canis familiaris [5] came to 22.4 µg/kg.
Compound `COc1ccc(-c2cnc(N3Cc4c(nc5ccccc5c4O)[C@H]3c3ccc4c(c3)CCO4)nc2)cc1` registered a Ki in data set [1] of 0.23 nM. Besides, in the data set filed under Homo sapiens, the Ratio came to 27. Also, it took a dose of 9.6 µg/kg to reach the 50% effect level with Canis familiaris [6] (ED50).
In the case of `Oc1c2c(nc3ccccc13)C(c1ccc3c(c1)OCO3)N(c1ncccn1)C2` (stereo not drawn), the affinity in data set [1], expressed as Ki, was 1.2 nM. Besides, the Ratio in the data set listed under Homo sapiens was 7.4.
Regarding `CCN(CC)CCOc1ccc(-c2cnc(N3Cc4c(nc5ccccc5c4O)C3c3ccc4c(c3)CCO4)nc2)cc1` (stereo not drawn), the Ki in data set [1] was determined as 0.53 nM.
In the case of `COc1ccc(-c2cnc(N3Cc4c(nc5ccccc5c4O)C3c3ccc4c(c3)OCO4)nc2)cc1` (stereo not drawn), the affinity in data set [1] corresponds to a Ki of 0.31 nM. Moreover, the Ratio in the data set listed under Homo sapiens stood at 18.5.
As to `COc1ccc(-c2cnc(N3Cc4c(nc5ccccc5c4O)C3c3ccc4c(c3)CCC4)nc2)cc1OC` (stereo not drawn), the Ki in data set [1] is 1.14 nM. The Ratio in the data set listed under Homo sapiens is 2.14.
In the case of `COc1ccc(-c2cnc(N3CC(=O)c4c([nH]c5ccccc45)C3c3ccc4c(c3)OCO4)nc2)cc1OC` (stereo not drawn), the Ki in data set [1] came to 8.86 nM. Moreover, the pKa in data set [7] was ~14.
As to `COc1ccc(-c2cnc(N3Cc4c(nc5ccccc5c4O)C3c3ccc4c(c3)CCO4)nc2)cc1` (stereo not drawn), affinity in data set [1] was put at a Ki of 0.4 nM. Further, the Ratio in the data set filed under Homo sapiens was found to be 55.9. The same compound had a bioavailability in data set [2] of 20%.
In the case of `COc1ccc(-c2cnc(N3Cc4c(nc5ccccc5c4O)C3c3ccc4c(c3)OCCO4)nc2)cc1` (stereo not drawn), the Ki in data set [1] is 0.52 nM. Further, the Ratio in the data set listed under Homo sapiens was determined as 3.07.
In data set [1], `COc1ccc(-c2cnc(N3Cc4c(nc5ccccc5c4O)C3c3ccc(OC)c(OC)c3)nc2)cc1OC` (stereo not drawn) showed a Ki of 24.7 nM.
